# Bridge positions count the residues as written; N and C are the ends. Peptide text beside a SMILES is read from it.
# Legend:
# [1] = reference control; cited from earlier work
# [2] = Far-UV circular dichroism, calculated percent helicity in phosphate buffer; assay type: physicochemical; conditions: 100 µM in 10 mM sodium phosphate buffer (PBS), pH 7.4, 25 °C; calculated at 222 nm
# Procedure: Figure 3 Data generated from Far-UV CD spectra for hACE2-derived peptides measured at a concentration of 100 µM in 10 mM sodium phosphate buffer at pH 7.4 and 25 °C. (A) Far-UV CD spectra of hACE2 (Asp30-Asp38)-derived linear and i, i + 4 staple peptides in molar ellipticity per residue. (B) Table listing the derivatives of 1 with a focus on the macrocyclization technique and measure-based calculated helicity (%) via CD. (C) CD spectra of hACE2 (His34-Gln42)-derived linear and i, i + 4 staple peptides in molar ellipticity per residue. (D) Table listing the derivatives of 2 with a focus on the macrocyclization technique and measure-based calculated helicity (%) via CD. HDY 1,5-Hexadiyne; BMB 1,4-Bis(bromomethyl)benzene; HFB hexafluorobenzene. ^a Predicted helicity (%) using AGADIR online software available at http://agadir.crg.es (accessed on 17 April 2023); it is only applicable to peptides consisting of natural amino acids. […]
# The raw CD data (mdeg) were converted to mean residue ellipticity ( [θ] , deg·cm^2·dmol^−1·res^−1) by normalizing for peptide concentration, the number of amide bonds and path length, using Equation (2):(2) [θ]=θ/10×C×Np×l where θ is the measured ellipticity (mdeg), C is the peptide molar concentration (M), Np is the number of amino acid residues in the peptide and l is the cell path length (cm).
# The maximum mean ellipticity [θ]max was calculated using Equation (3), as reported previously:(3) [θ]max=−44000+250×T×1−k/Np where T is temperature (°C) and k is the number of non-hydrogen-bonded peptide carbonyls. […]
# circular dichroism = conditions: 10 mM Na phosphate; pH 7.4; 25 °C; 100 uM
# [3] = assay type: physicochemical; conditions: 100 µM in 50/50 TFE/10 mM sodium phosphate buffer, pH 7.4, 25 °C
# [4] = BeStSel analysis of Far-UV CD spectra (secondary structure content); assay type: physicochemical; conditions: from Far-UV CD spectra
# Description: This finding prompted us to synthesize the lactam stapled peptides 22 and 23. Similar to our observations of compound 10, we also noted a dominant conformation of 22 attributable to a regular helix1 (53.7%) and an antiparallel, right-twisted β-sheet (46.3%). Therefore, the high percentage of calculated helicity in compounds 10 and 22 can be explained on the basis of the contribution of a strong, negative absorbance band within the 217–218 nm spectral range of the Far-UV CD spectra. Such features are typical of a right-twisted β-sheet.
# We were also successful at applying several cyclization strategies across the panel of hACE2 (His34-Gln42)-derived peptides. […] The associated root mean square deviation (RMSD) was 0.5. […] The distortion of the helical conformation can be partially explained by the highly polar nature of our peptide sequence (7 out of 9 amino acids) and inherent limitations in terms of the maximum helicity possible for short peptides due to C- and N-terminal distortions. […] That finding highlights the substantial influence of the initial linear sequence on staple-induced helicity.
# [5] = biological target: SARS-CoV-2 Spike RBD/hACE2 interactions (Severe acute respiratory syndrome coronavirus 2, UniProt P0DTC2); assay type: biochemical, SARS-CoV-2 / human
# [6] = 37 °C, comparison in words
# in vitro = conditions: rat, plasma
compound,measurement,setting,value
"Apelin-13 (QRPRLSHKGPMPF; Apelin-13; UniProt Q9ULZ1 65-77, looked up)","In vitro half-life (t1/2), in words",[1],short in vitro half-life
Ac-NH-His-Glu-S5-Glu-Asp-Leu-S5-Tyr-Gln-CO-NH2 [linear 11],Helicity (%) via CD,[2],11.0%
Ac-NH-Asp-Lys-[Lys-Asn-His-Glu-Asp]-Glu-Asp-[Lys-Phe-Tyr-Gln-Asp]-CO-NH2 [peptide 24],Helicity (%) via CD,[2],25.2%
Ac-NH-His-Glu-[Lys-Glu-Asp-Leu-dPra]-Tyr-Gln-CO-NH2 [compound 13],Helicity (%) via CD,[2],18.1%
"CC(=O)N[C@@H](Cc1c[nH]cn1)C(=O)N[C@@H](CCC(=O)O)C(=O)N[C@H]1CCCCNC(=O)C[C@@H](C(=O)N[C@@H](Cc2ccc(O)cc2)C(=O)N[C@@H](CCC(N)=O)C(N)=O)NC(=O)[C@H](CC(C)C)NC(=O)[C@H](CC(=O)O)NC(=O)[C@H](CCC(=O)O)NC1=O [peptide 4, Ac-NH-His-Glu-[Lys-Glu-Asp-Leu-Asp]-Tyr-Gln-CO-NH2] (Ac-HEKEDLDYQ-NH2; lactam 3-7)",helicity,circular dichroism,55.5%
same,Helicity in 50%TFE (%),[3],49.4%
same,Distorted helix2 with BeStSel,[4],18.3%
same,Helical content (α-helical character) with BeStSel,[4],37.0%
same,Regular helix1 with BeStSel,[4],18.7%
same,"Luminescence signal (RLUs), disruption of SmBiT-ACE2 + LgBiT-RBD",[5],reduced the luminescence signal
same,Degradation / stability in rat plasma over 24 h,[6],significantly more stable
same,half-life,in vitro,300 min

# — paper PMC10778704, “Comparative Analysis of Cyclization Techniques in Stapled Peptides: Structural Insights into Protein–Protein Interactions in a SARS-CoV-2 Spike RBD/hACE2 Model System” (International Journal of Molecular Sciences, 2023)
